Experiment [1] deals with Tg23 mice (ICERIγ transgenic diabetes model mice). The experiment in a line: Experimental Example 1: effect of estradiol administration on blood glucose and insulin-producing cells in diabetes model mice. Format: in vivo, mouse. The protocol: Blood glucose levels were measured by an enzyme-electrode method with ONE TOUCH UltraVue (Johnson & Johnson K.K.) on whole blood taken from tail veins of subject animals.
(§1) Pancreases were fixed in 10% formalin, embedded in paraffin, and sliced into sections having a thickness of 2 μm. The sections were immunostained with overnight incubation at 4° C. in dilution solutions containing various primary antibodies described below.
(§2) Primary antibodies: Anti-insulin antibody (dilution rate 1:500; DAKO), anti-glucagon antibody (dilution rate 1:500; Linco Research Inc.), anti-DBA antibody (dilution rate 1:300; Vector Laboratories), anti-Pdx-1 antibody (dilution rate 1:1000; kindly provided by Chris V. E. Wright, Vanderbilt University), anti-collagen type IV antibody (dilution rate 1:250; PROGEN Biotechnik), and anti-Glut 4 antibody (dilution rate 1:1000; Chemicon).
The primary antibodies were detected by immunofluorescence labeling using secondary antibodies conjugated with Alexa 488 or Alexa 568 (1:200; Molecular Probes); third antibody conjugated with biotin-labeled secondary antibodies and streptavidin Alexa 488 or Alexa 568 (1:800; Vector Laboratories); or by an immunoperoxidase staining method using biotin-labeled secondary antibodies. Staining was visualized with diaminobenzidine. The sections were counterstained with hematoxylin. Images were captured on a BZ9000 microscope (Keyence), or in the confocal mode on an LSM 510 META confocal microscope (Carl Zeiss). Immunofluorescence intensity was measured in random fields (n=30/section) using LSM Zeiss software, and the result was expressed as average pixel intensity.
ICERIγ transgenic mice (male) were generated from a pure line C57BL/6J (Japan SLC, Inc.) in accordance with the method described in Example 1 of Patent Literature 1 (WO2004/072282). […]
Tg23 mice (11 weeks of age) were divided into two groups: an estradiol administration group (n=24), and a control group (n=57). […] Then, body weight and blood glucose levels of the Tg mice and wild-type mice (WT) (n=81) were monitored every week, and the mice were dissected after 43 weeks. […]

The subject of another experiment is Tg23 mice. The experiment in a line: Experimental Example 5: β-cell neogenesis and electron microscopy of pancreas. Format: in vivo, mouse. How it is done: as §1, §2
The primary antibodies were detected by immunofluorescence labeling using secondary antibodies conjugated with Alexa 488 or Alexa 568 (1:200; Molecular Probes); third antibody conjugated with biotin-labeled secondary antibodies and streptavidin Alexa 488 or Alexa 568 (1:800; Vector Laboratories); or by an immunoperoxidase staining method using biotin-labeled secondary antibodies. Staining was visualized with diaminobenzidine. […] Immunofluorescence intensity was measured in random fields (n=30/section) using LSM Zeiss software, and the result was expressed as average pixel intensity.
All pancreatic islets, glucagon positive cells, and insulin-positive cells existing on a single pancreas section were photographed on a Keyence Biorevo microscope, and five to seven sections corresponding to areas that are at least 150 μm apart from one another were evaluated for a single pancreas (a single group includes five to eight males and six to nine females). Areas of β-cells and pancreatic islets were measured for each of the sections using Image Joint and Dynamic Cell Count software (Keyence). […]
Experimental Example 5: Effect of estradiol administration (III) Tg23 mice (23-24 weeks of age) were divided into two groups (each group: n=4 to 10): an estradiol administration group and a control group. […] Then, blood glucose levels of these mice were monitored every week. […]

Turning to `C[C@]12CC[C@@H]3c4ccc(O)cc4CC[C@H]3[C@@H]1CC[C@@H]2O` [estradiol, 17β-estradiol], the blood glucose levels entry in experiment [1] (Tg23 mice 11 weeks of age, testectomy (Tx) + single 17β-estradiol pellet s.c. (0.72 mg/pellet, 90-day release), vs wild-type mice) was “lowered to the same levels of normal mice”. Moreover, in experiment [1] (Tx+E group, Tg23 mice), the “persistence of lowered blood glucose levels” value was “maintained until death”. In addition, in experiment [1] (Tx+E group, anti-insulin immunostaining, 1 week after estradiol administration), the “insulin-producing cells in pancreatic duct epithelium cells of the pancreas” value is listed as “induced”. Besides, the “neogenesis of β-cells (insulin-producing cells and Pdx-1 in pancreatic duct epithelial cells)” value with Tg23 mice (Tg23 mice 23-24 weeks of age, Tx+E group vs Tg group) is on record as “enhanced”. Also, in the experiment on Tg23 mice (Treatment group, 48 weeks of age, electron microscope), the “mature β-cells” value was “formed”. In addition, in the experiment on Tg23 mice (Tx+E group (Treatment), 48 weeks of age), the “insulin secretory granules in pancreatic tissue (electron microscope)” value was “observed”.
